Data on 3 molecules can be found in ChEMBL document CHEMBL1153130, “Discovery of dipiperidines as new antitubercular agents” (Bioorg Med Chem Lett, 2010).

Each structure is given as a SMILES string. Values after ≈ are worked out from the molar mass of the structure shown.

Assay [1] relates to Mycobacterium tuberculosis. Put plainly: Antitubercular activity against Mycobacterium tuberculosis H37Rv after 10 to 14 days by broth microdilution assay. It counts as functional. (In general: In broth dilution the organism is exposed to a series of concentrations in liquid medium.)
Assay [2] relates to Mycobacterium tuberculosis. The experiment in a line: Antitubercular activity against Mycobacterium tuberculosis H37Rv assessed as inhibition of cell wall biosynthesis after 10 to 14 days by bioluminescence assay relative to ethambutol. It counts as functional. Also noted: scale not given: the % may be the effect or the level left.
Another assay deals with HepG2. The experiment in a line: Cytotoxicity against human HepG2 cells after 72 hrs by MTS assay. The assay is classed as cell-based. To be noted: HepG2, 72 h.
Assay [3] in a line: Selectivity index, IC50 for human HepG2 cells to MIC for Mycobacterium tuberculosis H37Rv ATCC 25618. The assay is classed as functional.
For assay [4], the system named is Mycobacterium tuberculosis. Put plainly: Antitubercular activity against Mycobacterium tuberculosis H37Rv after 10 to 14 days by BACTEC assay. The assay is classed as functional.

A word on the MIC: it is the lowest concentration found to suppress growth. Usually IC50 stands for the concentration needed to halve the response being measured. Turning to `OC1CCN(CC2CCN(C3C4CC5CC(C4)CC3C5)CC2)CC1` (centres undefined), 31.2 µM (≈ 10.4 µg/mL) was the least that counted as inhibitory in assay [1] (MIC). Further, the Activity in assay [2] was found to be 102%. Besides, half-maximal inhibition in the assay on HepG2 (IC50) required 25 µM. The “Selectivity Index” value in assay [3] was 0.8.

Turning to `OC1CCN(CC2CCN(CC(c3ccccc3)c3ccccc3)CC2)CC1`, the values for the minimal inhibitory concentration (MIC) in assay [1] and in assay [4] were 7.8 µM (≈ 2.95 µg/mL) and 16 µM (≈ 6.06 µg/mL), respectively. For the same molecule, the Activity in assay [2] came to 125%. The same molecule registered an IC50 in the assay on HepG2 of 30 µM. Moreover, in assay [3], the “Selectivity Index” value is on record as 3.85.

`OC1CCN(CC2CCN(CC34CC5CC(CC(C5)C3)C4)CC2)CC1`: the minimal inhibitory concentration (MIC) in assay [1] turned out to be 6.25 µM (≈ 2.17 µg/mL); in assay [4], 15.6 µM (≈ 5.41 µg/mL). The Activity in assay [2] worked out at 59%. For the same molecule, the half-inhibitory concentration (IC50) in the assay on HepG2 was 56 µM. Moreover, the “Selectivity Index” value in assay [3] is on record as 8.96.
